ChEMBL document CHEMBL1141473, “Tricyclic HIV integrase inhibitors: potent and orally bioavailable C5-aza analogs” (Bioorg Med Chem Lett, 2008)
Converted amounts (≈) assume the structure as drawn.

Experiments:
[1] = test system: Human immunodeficiency virus; test: Antiviral activity against HIV in MT2 cells in presence of 35 mg/mL human serum albumin; format: functional, organism-based; details: Human immunodeficiency virus 1, MT2
[2] = Inhibition of HIV integrase strand transfer activity; set-up: species or system Human immunodeficiency virus
[3] = test system: Human immunodeficiency virus 1; test: Antiviral activity against HIV1 3B in MT2 cells after 5 days; format: functional, organism-based; details: Human immunodeficiency virus 1, 3B, MT2, 120 h
[4] = Aqueous solubility at pH 7.3; format: physicochemical
[5] = Oral bioavailability in dog; format: ADME, organism-based, Canis lupus familiaris; details: in vivo
[6] = Total clearance in iv dosed rat; format: ADME, organism-based; details: in vivo
[7] = Half life in iv dosed rat; format: ADME, organism-based; details: in vivo
[8] = Half life in iv dosed dog; format: ADME, organism-based, Canis lupus familiaris; details: in vivo
[9] = Total clearance in iv dosed dog; format: ADME, organism-based, Canis lupus familiaris; details: in vivo
[10] = Oral bioavailability in rat; format: ADME, organism-based; details: in vivo

| EC50 [1] [nM] | IC50 [2] [nM] | EC50 [3] [nM] | solubility [4] [µM] | bioavailability [5] [%] | clearance [6] [mL/min/kg] | half-life [7] [min] | half-life [8] [min] | clearance [9] [mL/min/kg] | bioavailability [10] [%] | SMILES |
| --- | --- | --- | --- | --- | --- | --- | --- | --- | --- | --- |
| 54 | 50 |  |  |  |  |  |  |  |  | O=C1c2c(c(C(=O)N3CCOCC3)c3cccnc3c2O)CN1Cc1ccc(F)cc1 |
|  | 100 | 47 |  |  |  |  |  |  |  | CC(=O)N(C)c1c2c(c(O)c3ncccc13)C(=O)N(Cc1ccc(F)cc1)C2 |
|  | 71 | 10 | 844 (≈ 345 µg/mL) |  |  |  |  |  |  | CN(C)C(=O)N(C)c1c2c(c(O)c3ncccc13)C(=O)N(Cc1ccc(F)cc1)C2 |
|  | 265 | 31 |  |  |  |  |  |  |  | CN(C)C(=O)C(=O)N(C)c1c2c(c(O)c3ncccc13)C(=O)N(Cc1ccc(F)cc1)C2 |
| 49 | 13 | 1.4 | 2.8 (≈ 1.2 µg/mL) | 8.3 | 25.5 | 36 | 48 | 5 | 4 | O=C1c2c(c(N3CCCS3(=O)=O)c3cccnc3c2O)CN1Cc1ccc(F)cc1 |
| 8.4 | 62 | 3.1 | 4.5 (≈ 2 µg/mL) | 16 | 3.83 | 54 | 270 | 5.67 | 13 | CN(C)S(=O)(=O)N(C)c1c2c(c(O)c3ncccc13)C(=O)N(Cc1ccc(F)cc1)C2 |

| SMILES | EC50 [1] [nM] | IC50 [2] [nM] | EC50 [3] [nM] | solubility [4] [µM] | bioavailability [5] [%] | clearance [6] [mL/min/kg] | half-life [7] [min] | half-life [8] [min] | clearance [9] [mL/min/kg] | bioavailability [10] [%] |
| --- | --- | --- | --- | --- | --- | --- | --- | --- | --- | --- |
| Cc1nnc(C(=O)NC(C)(C)c2nc(C(=O)NCc3ccc(F)cc3)c(O)c(=O)n2C)o1 |  | 27 | 6 |  |  |  |  |  |  |  |
